{
  "source": "ChEMBL document CHEMBL5370596",
  "about": "“Wulfenioidins D-N, Structurally Diverse Diterpenoids with Anti-Zika Virus Activity Isolated from Orthosiphon wulfenioides” (J Nat Prod, 2023)",
  "key": {"Vero": {"system": "Vero", "experiment": "(§1) Cytotoxicity against African green monkey Vero cells assessed as reduction in cell viability after 72 hrs by CCK-8 assay", "assay_type": "toxicity, cell-based", "settings": "chlorocebus sabaeus, vero, 72 h"}, "[1]": {"experiment": "as §1", "assay_type": "toxicity, cell-based", "settings": "chlorocebus sabaeus, Vero cells"}, "Zika virus [2]": {"system": "Zika virus", "experiment": "Antiviral activity against ZIKV infected in African green monkey Vero cells assessed as inhibition of viral replication at 50 uM incubated for 72 hrs by qRT-PCR analysis", "assay_type": "functional, organism-based"}, "Zika virus [3]": {"system": "Zika virus", "experiment": "Antiviral activity against ZIKV infected in African green monkey Vero cells assessed as inhibition of viral E protein expression incubated for 72 hrs by Western blot analysis", "assay_type": "functional, organism-based", "settings": "dose 5-20 µM"}, "Zika virus [4]": {"system": "Zika virus", "experiment": "Antiviral activity against ZIKV infected in African green monkey Vero cells assessed as inhibition of viral E protein expression at 20 uM incubated for 72 hrs by immunofluorescence analysis", "assay_type": "functional, organism-based"}, "Zika virus [5]": {"system": "Zika virus", "experiment": "Antiviral activity against ZIKV infected in African green monkey Vero cells assessed as inhibition of viral replication incubated for 72 hrs by qRT-PCR analysis", "assay_type": "functional, organism-based"}},
  "note": "Active and inactive are the calls of the source. The rule behind the calls is not given here.",
  "data": [
    {"smiles": "Cc1nc2c(C(C)C)cc3c(c2o1)[C@@]1(C)CCCC(C)(C)[C@@H]1C=C3", "values": [
      {"measurement": "Activity", "setting": "Vero", "value": "Toxic"}
    ]},
    {"smiles": "CC1=C2CCCC(C)(C)[C@@H]2CC[C@@]12C=C(C(C)C)C(=O)O2", "values": [
      {"measurement": "Activity", "setting": "Vero", "value": "Toxic"}
    ]},
    {"smiles": "CCc1nc2c(C(C)C)cc3c(c2o1)[C@@]1(C)CCCC(C)(C)[C@@H]1CC3", "values": [
      {"measurement": "Activity", "setting": "Vero", "value": "Toxic"}
    ]},
    {"smiles": "COC(C)(C)C1=Cc2ccc(C)c3c2[C@@](O)(C1=O)C(C)(C)CCC3", "values": [
      {"measurement": "CC50 at 72 h", "setting": "[1]", "value": "> 100", "unit": "µM"},
      {"measurement": "inhibition", "setting": "Zika virus [2]", "value": "Active"},
      {"measurement": "inhibition", "setting": "Zika virus [3]", "value": "Dose-Dependent Effect"},
      {"measurement": "inhibition", "setting": "Zika virus [4]", "value": "Active"},
      {"measurement": "EC50", "setting": "Zika virus [5]", "value": 8, "unit": "µM"}
    ]},
    {"smiles": "CC(C)c1cc2c(c3ocnc13)[C@@]1(C)CCCC(C)(C)[C@@H]1CC2", "values": [
      {"measurement": "Activity", "setting": "Vero", "value": "Toxic"}
    ]},
    {"smiles": "CO[C@@H]1CCC(C)(C)Oc2c(O)c(C(C)C)cc3ccc(C)c1c23", "values": [
      {"measurement": "CC50 at 72 h", "setting": "[1]", "value": "> 100", "unit": "µM"},
      {"measurement": "inhibition", "setting": "Zika virus [2]", "value": "Active"},
      {"measurement": "inhibition", "setting": "Zika virus [3]", "value": "Dose-Dependent Effect"},
      {"measurement": "inhibition", "setting": "Zika virus [4]", "value": "Active"},
      {"measurement": "EC50", "setting": "Zika virus [5]", "value": 8.07, "unit": "µM"}
    ]}
  ]
}
